The target of the assay is BRD4 (BD1+BD2) bromodomain (Homo sapiens (Human), UniProt O60885). As to the kind of experiment: BRD4 binding inhibition (AlphaScreen, GST-BRD4 vs tetraacetylated histone H4 peptide). The method, then:
A mixture comprising 100 nM GST-BRD4 (BD1+BD2) and 100 nM biotinylated acetyl-histone H4 (Lys5,8,12,16) peptide was prepared in assay buffer (50 mM HEPES pH 7.4; 25 mM NaCl; 0.05% Tween 20; 0.1% bovine serum albumin (BSA); 10 mM dithiothreitol (DTT)). After adding 6 μl of the mixture to the diluent, 6 μl of the pre-mixed AlphaLISA Glutathione Acceptor Beads and AlphaScreen Streptavidin Donor Beads (PerkinElmer, 10 μg/ml in assay buffer, respectively) was added thereto. The samples were incubated in the dark at room temperature for 30 minutes (shaking at 300 rpm). Then, the signals were measured with PerkinElmer Envision HTS Multilabel Reader using an alpha screen protocol of PerkinElmer. Each plate contained the negative control in which biotinylated acetyl-histone H4 peptide and GST-BRD4 (BD1+BD2) were replaced by assay buffer. In the case of using the software GraphPad Prism for calculation, the negative control point was input as a low standard value. The positive control (probe molecule l-BET762 containing protein/peptide mixture) proceeded to pipetting.

Setting [1] is: GST-BRD4 (BD1+BD2) / biotinylated acetyl-histone H4 (Lys5,8,12,16) peptide, read-out: IC50, BRD4 binding inhibition.
[2] abbreviates: GST-BRD4 (BD1+BD2) vs biotinylated acetyl-histone H4 peptide, AlphaScreen, read-out: BRD4 IC50.

Several values for one entry are separate records, joined by “and”; a condition that tells them apart may be missing. Equal entries are not always repeated. Where two headings read alike, the source gives them in different places.

As a reminder, the IC50 is the concentration at which inhibition is half-maximal. For `Cc1nnc2c(NCCCCNC(=O)OC(C)(C)C)nc3cc(C(=O)NC(C)(C)C)ccc3n12` [Example 203, [4-(7-tert--butylcarbamoyl-1-methyl-[1,2,4]triazolo[4,3-a]quinoxaline-4-ylamino)-butyl]-carbamic acid-tert-butylester], the IC50 was not above 50 nM under setting [1] and 42 nM under setting [2]. For `Cc1nnc2c(NCCCCNC(=O)OC(C)(C)C)nc3cc(C(=O)NCc4ccc(Cl)cc4)ccc3n12` [Example 211, {4-[7-(4-chloro-benzylcarbamoyl)-1-methyl-[1,2,4]triazolo[4,3-a]quinoxaline-4-ylamino]-butyl}-carbamic acid-tert-butylester] the same measures were not above 50 nM and 34 nM. Regarding `Cc1nnc2c(NCCCCN)nc3cc(-c4nc5ccccc5n4C)ccc3n12` [Example 221, N^1-[1-methyl-7-(1-methyl-1H-benzoimidazole-2-yl)-[1,2,4]triazolo[4,3-a]quinoxaline-4-yl]-butane-1,4-diamine ditrifluoroacetic acid], under setting [2], the IC50 was 62 nM. As for `CC(=O)OC(C)(C)C(=O)NCCCCNc1nc2cc(-c3nc4ccccc4n3C)ccc2n2c(C)nnc12` [Example 231, acetic acid-1-{4-[7-(1-methyl-1H-benzoimidazole-2-yl)-1-methyl-[1,2,4]triazolo[4,3-a]quinoxaline-4-ylamino]-butylcarbamoyl}-1-methyl-ethylester], the IC50 was not above 50 nM under setting [1] and 14 nM under setting [2]. Taken in the same sequence, the figures for `Cc1nnc2c(NCCCCNC(=O)C(C)(C)O)nc3cc(-c4nc5ccccc5n4C)ccc3n12` [Example 232, 2-hydroxy-N-{4-(7-(1-methyl-1H-benzoimidazole-2-yl)-1-methyl-[1,2,4]triazolo[4,3-a]quinoxaline-4-ylamino)-butyl}-2-methyl-propionamide] were not above 50 nM and 33 nM.

For the molecule `COCCn1c(-c2ccc3c(c2)nc(NCCCCNC(=O)CC(C)C)c2nnc(C)n23)nc2ccccc21` [Example 241, N-(4-{7-[1-(2-methoxy-ethyl)-1H-benzoimidazole-2-yl]-1-methyl-[1,2,4]triazolo[4,3-a]quinoxaline-4-ylamino}-butyl)-3-methyl-butyramide], the IC50 is, setting by setting: under setting [1], not above 10 nM; under setting [2], 7 nM.

On to `Cc1nnc2c(NCCCCNC(=O)OC(C)(C)C)nc3cc(N)ccc3n12` [Example 243, [4-(7-amino-1-methyl-[1,2,4]triazolo[4,3-a]quinoxaline-4-ylamino)-butyl]-carbamic acid-tert-butylester], for which, under setting [2], the IC50 stood at 65 nM. Take `Cc1nnc2c(NCCCCNC(=O)OC(C)(C)C)nc3cc(C(=O)c4ccccc4)ccc3n12` [Example 260, [4-(7-benzoyl-1-methyl-[1,2,4]triazolo[4,3-a]quinoxaline-4-ylamino)-butyl]-carbamic acid-tert-butylester]: the IC50 under setting [2] was 62 nM. Still for that read-out and setting: the same measure for `COc1ccc(C(=O)c2ccc3c(c2)nc(NCCCCNC(=O)OC(C)(C)C)c2nnc(C)n23)cc1` [Example 262, {4-[7-(4-methoxy-benzoyl)-1-methyl-[1,2,4]triazolo[4,3-a]quinoxaline-4-ylamino]-butyl}-carbamic acid-tert-butylester]: 72 nM; for `Cc1nnc2c(NCCCCN)nc3cc(OC(F)(F)F)ccc3n12` [Example 270, N^1-(1-methyl-7-trifluoromethoxy-[1,2,4]triazolo[4,3-a]quinoxaline-4-yl)-butane-1,4-diamine ditrifluoroacetic acid]: 85 nM. Consider `COc1ccc2c(c1)nc(NCCCCNC(=O)[C@@H](C)O)c1nnc(C)n12` [Example 295, 2-(R)-hydroxy-N-[4-(7-methoxy-1-methyl-[1,2,4]triazolo[4,3-a]quinoxaline-4-ylamino)-butyl]-propaneamide], for which the IC50 was not above 50 nM under setting [1] and 33 nM under setting [2]. For the molecule `COc1ccc2c(c1)nc(NCCCCNC(=O)C(C)(C)OC(C)=O)c1nnc(C)n12` [Example 296, acetic acid-1-[4-(7-methoxy-1-methyl-[1,2,4]triazolo[4,3-a]quinoxaline-4-ylamino)-butylcarbamoyl]-1-methyl-ethylester], the IC50 by setting is: under setting [1], not above 50 nM; under setting [2], 96 nM and 27 nM. As for `COc1ccc2c(c1)nc(NCCCCNC(=O)C(C)(C)O)c1nnc(C)n12` [Example 297, 2-hydroxy-N-[4-(7-methoxy-1-methyl-[1,2,4]triazolo[4,3-a]quinoxaline-4-ylamino)-butyl]-2-methyl-propionamide], the IC50 runs as follows: under setting [1], not above 50 nM; under setting [2], 27 nM. For `COc1ccc2c(c1)nc(NCCCCNC(=O)[C@@H](OC)C(C)C)c1nnc(C)n12` [Example 301, 2-(S)-methoxy-N-[4-(7-methoxy-1-methyl-[1,2,4]triazolo[4,3-a]quinoxaline-4-ylamino)-butyl]-3-methyl-butyramide] the same measures were not above 50 nM and 16 nM.

With `COc1ccc2c(c1)nc(NCCCCNC(=O)COC(C)=O)c1nnc(C)n12` [Example 303, acetic acid-[4-(7-methoxy-1-methyl-[1,2,4]triazolo[4,3-a]quinoxaline-4-ylamino)-butylcarbamoyl]-methylester], under setting [2], the IC50 turned out to be 63 nM.

`CCOC(=O)CC(=O)NCCCCNc1nc2cc(OC)ccc2n2c(C)nnc12` [Example 305, N-[4-(7-methoxy-1-methyl-[1,2,4]triazolo[4,3-a]quinoxaline-4-ylamino)-butyl]-malonamic acid ethylester]: the IC50 was not above 50 nM under setting [1] and 41 nM under setting [2]. For the molecule `COc1ccc2c(c1)nc(NCCCCNC(=O)[C@H](C(C)C)N1CCOCC1)c1nnc(C)n12` [Example 314, N-[4-(7-methoxy-1-methyl-[1,2,4]triazolo[4,3-a]quinoxaline-4-ylamino)-butyl]-3-methyl-2-(S)-morpholine-4-yl-butyramide], the IC50 under setting [2] is 56 nM. `COc1ccc2c(c1)nc(NCCCCNC(=O)[C@H](C(C)C)N1CCC(CCO)CC1)c1nnc(C)n12` [Example 317, 2-(S)-[4-(2-hydroxy-ethyl)-piperidine-1-yl]-N-[4-(7-methoxy-1-methyl-[1,2,4]triazolo[4,3-a]quinoxaline-4-ylamino)-butyl]-3-methyl-butyramide]: the IC50 was not above 50 nM under setting [1] and 31 nM under setting [2]. Taken in the same sequence, the figures for `COc1ccc2c(c1)nc(NCCCCNC(=O)[C@@H](NC(=O)[C@H](C)O)C(C)C)c1nnc(C)n12` [Example 324, 2-(S)-(2-(S)-hydroxy-propionylamino)-N-[4-(7-methoxy-1-methyl-[1,2,4]triazolo[4,3-a]quinoxaline-4-ylamino)-butyl]-3-methyl-butyramide] were not above 10 nM and 7 nM. With `COc1ccc2c(c1)nc(NCCCCNC(=O)[C@H](Cc1ccc(O)cc1)NC(=O)OC(C)(C)C)c1nnc(C)n12` [Example 325, (S)-{2-(4-hydroxy-phenyl)-1-[4-(7-methoxy-1-methyl-[1,2,4]triazolo[4,3-a]quinoxaline-4-ylamino)-butylcarbamoyl]-ethyl}-carbamic acid-tert-butylester], under setting [2], the IC50 came to 71 nM. On the same count and under the same terms, next, `COc1ccc2c(c1)nc(NCCCCNC(=O)[C@@H](N)Cc1ccc(O)cc1)c1nnc(C)n12` [Example 326, 2-(S)-amino-3-(4-hydroxy-phenyl)-N-[4-(7-methoxy-1-methyl-[1,2,4]triazolo[4,3-a]quinoxaline-4-ylamino)-butyl]-propionamide]: 64 nM.
